This test concerns the target T1, CYP2C8 (Homo sapiens, UniProt P10632).
T1 construct: Pooled human liver microsomes (HLM, LOT 32556) were purchased from BD Gentest Corporation; tissue BD Gentest Corporation LOT 32556; host or cells: pooled human liver microsomes
T1 sequence (P10632 1-490): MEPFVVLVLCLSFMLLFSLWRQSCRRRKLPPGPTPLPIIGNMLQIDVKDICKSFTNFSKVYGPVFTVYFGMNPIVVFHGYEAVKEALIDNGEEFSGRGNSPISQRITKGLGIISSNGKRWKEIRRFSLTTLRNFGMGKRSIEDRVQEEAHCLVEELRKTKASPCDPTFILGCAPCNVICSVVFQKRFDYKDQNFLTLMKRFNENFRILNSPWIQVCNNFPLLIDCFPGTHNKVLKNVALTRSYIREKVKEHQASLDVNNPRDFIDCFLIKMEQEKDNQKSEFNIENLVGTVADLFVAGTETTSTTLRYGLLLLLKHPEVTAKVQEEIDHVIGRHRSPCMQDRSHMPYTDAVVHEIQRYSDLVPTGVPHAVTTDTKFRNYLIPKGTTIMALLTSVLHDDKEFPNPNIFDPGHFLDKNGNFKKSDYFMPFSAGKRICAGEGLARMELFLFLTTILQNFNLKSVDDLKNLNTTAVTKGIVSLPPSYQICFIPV
Put plainly: CYP inhibition in human liver microsomes, substrate cocktail, LC-MS/MS (paclitaxel). In kind it is in vitro ADME. As to conditions: metabolite 6α-hydroxypaclitaxel, read-out: IC50 for HLM, CYP2C8. The source says:
Positive controls (furafyline for CYP1A2, montelukast for CYP2C8, sulfaphenazole for CYP2C9, S-(+)-N-3-benzylnirvanol for CYP2C19, quinidine for CYP2D6, ketoconazole for CYP3A4) and specific substrates (phenacetin for CYP1A2, paclitaxel for CYP2C8, diclofenac for CYP2C9, S-mephenytoin for CYP2C19, dextromethorphan for CYP2D6, midazolam for CYP3A4) are consistent with our previous papers. The substrates were used at concentrations approximately equal to their respective Michaelis-Menten constant (Km) values: 10 μM phenacetin, 5 μM paclitaxel, 5 μM diclofenac, 200 μM S-mephenytoin, 5 μM dextromethorphan, and 2 μM midazolam. NADP^+ was added after a 15 min preincubation of all other components at 37 °C. After a given incubation time (30 min), the reactions were terminated by addition of 60 μL ice-cold acetonitrile containing gemfibrozil and buspirone as internal standards. Incubation samples were stored at −80 °C until used in liquid chromatography-tandem mass spectrometry (LC-MS/MS) analysis. The mixture was centrifuged at 3,500 rpm for 5 min. The supernatant was mixed with equal volume of a 1:1 mixture of methanol and water and 20 μL of the final mixture was used for LC-MS/ MS analysis. […]
The CYP inhibition potential were evaluated by measuring the formation of one or more metabolites of the test substrates. […]
For orientation: Liver microsomes are vesicles of endoplasmic reticulum, rich in cytochrome P450 enzymes.

Structures are written as SMILES. pIC50: −log10 of the molar value. A value given as a limit tells only on which side of the number the result lay.

In the case of `O=C(O)[C@H]1O[C@@H](Oc2cc3oc(-c4ccc(O)cc4)cc(=O)c3c(O)c2O)[C@H](O)[C@@H](O)[C@@H]1O` [scutellarin, Scutellarin], the negative logarithm of the IC50 (pIC50) (commonly the negative decadic logarithm of the IC50, by convention in mol/L) is below 4.00.

Source of the values: paper PMC6271944 (Molecules, 2014).
